Test results published in BindingDB's records for doi:10.1046/j.1471-4159.1994.62010001.x (Allelix Biopharmaceuticals, 1994).

biological target: T1, Glutamate receptor ionotropic, kainate 4 (Homo sapiens, UniProt Q16099)
T1 sequence (Q16099 whole entry): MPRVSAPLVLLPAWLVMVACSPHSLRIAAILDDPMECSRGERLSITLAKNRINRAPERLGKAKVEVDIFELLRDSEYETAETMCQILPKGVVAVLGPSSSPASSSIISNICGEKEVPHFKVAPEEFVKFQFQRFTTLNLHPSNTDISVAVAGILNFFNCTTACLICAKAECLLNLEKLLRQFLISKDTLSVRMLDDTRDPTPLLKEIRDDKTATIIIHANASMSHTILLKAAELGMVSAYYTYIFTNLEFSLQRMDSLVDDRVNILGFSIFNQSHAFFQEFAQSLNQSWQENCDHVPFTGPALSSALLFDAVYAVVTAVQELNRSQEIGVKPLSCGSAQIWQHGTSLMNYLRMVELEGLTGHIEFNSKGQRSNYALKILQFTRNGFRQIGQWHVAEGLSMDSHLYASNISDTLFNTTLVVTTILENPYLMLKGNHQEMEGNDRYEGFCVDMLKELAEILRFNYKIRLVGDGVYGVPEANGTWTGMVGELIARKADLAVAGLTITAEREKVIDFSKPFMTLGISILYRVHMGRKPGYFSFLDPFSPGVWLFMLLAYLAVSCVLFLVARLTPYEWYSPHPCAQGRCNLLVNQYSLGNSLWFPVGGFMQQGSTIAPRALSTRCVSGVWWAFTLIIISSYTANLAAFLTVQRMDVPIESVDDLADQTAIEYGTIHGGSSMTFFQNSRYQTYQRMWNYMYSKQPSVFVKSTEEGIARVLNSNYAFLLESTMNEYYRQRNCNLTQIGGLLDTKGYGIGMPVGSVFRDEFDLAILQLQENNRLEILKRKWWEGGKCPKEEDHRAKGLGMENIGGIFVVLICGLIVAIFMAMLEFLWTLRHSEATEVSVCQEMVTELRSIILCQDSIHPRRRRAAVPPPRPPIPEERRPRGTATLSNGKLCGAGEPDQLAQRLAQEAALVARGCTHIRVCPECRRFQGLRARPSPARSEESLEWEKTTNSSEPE

SMILES | Ki [nM]
C/C(=C\C=C\[C@@H](C)C(=O)O)[C@H]1CN[C@H](C(=O)O)[C@H]1CC(=O)O | 10.5
NC(CCC(=O)O)C(=O)O (centres undefined) [glutamic acid dianion] | 18.3
Cc1onc(O)c1CC(N)C(=O)O (stereo not drawn) [(RS)-2-amino-3-(3-hydroxy-5-methylisoxazol-4-yl)-propionicacid] | 1970
O=C1N=c2cc([N+](=O)[O-])c([N+](=O)[O-])cc2=NC1=O [NSC_3140] | 8490
CC(C)[C@H]1CN[C@H](C(=O)O)[C@H]1CC(=O)O [dihydrokainic acid] | 3840
CN[C@H](CC(=O)O)C(=O)O [NMDA] | > 10000
N#Cc1cc2nc(O)c(O)nc2cc1[N+](=O)[O-] [7-Cyano-3-hydroxy-6-nitro-quinoxalin-2-ol anion] | > 10000
N[C@@H](Cn1oc(=O)[nH]c1=O)C(=O)O [2-amino-3-(3,5-dioxo[1,2,4]oxadiazolidin-2-yl)propionic acid] | 6.43
C=C(C)[C@H]1CN[C@H](C(=O)O)[C@H]1CC(=O)O [Digensaeure] | 2.29
